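Cultured in 96-well plates, cells were exposed to test compound for 48 hours across five concentrations. TGI: concentration producing complete growth inhibition.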
Assays:
Assay in all cases: inhibition of tumour cell growth, NCI panel, 48 h
RPMI-8226 leukemia = tested on: RPMI-8226 leukemia
OVCAR-5 ovarian = tested on: OVCAR-5 ovarian
MDA-N = tested on: MDA-N
UACC-257 melanoma = tested on: UACC-257 melanoma
EKVX NSCLC = tested on: EKVX NSCLC
MDA-MB-435 = tested on: MDA-MB-435
SW-620 colon = tested on: SW-620 colon
T-47D breast = tested on: T-47D breast
SF-268 CNS = tested on: SF-268 CNS
NCI-H522 lung = tested on: NCI-H522 lung
NCI/ADR-RES ovarian = tested on: NCI/ADR-RES ovarian
CAKI-1 renal = tested on: CAKI-1 renal
SNB-75 CNS = tested on: SNB-75 CNS
MCF7 breast = tested on: MCF7 breast
SNB-19 CNS = tested on: SNB-19 CNS
A549 NSCLC = tested on: A549 NSCLC
COLO 205 colon = tested on: COLO 205 colon
U251 CNS = tested on: U251 CNS
SK-MEL-2 melanoma = tested on: SK-MEL-2 melanoma
M14 melanoma = tested on: M14 melanoma
DU-145 prostate = tested on: DU-145 prostate
MALME-3M melanoma = tested on: MALME-3M melanoma
HL-60(TB) leukemia = tested on: HL-60(TB) leukemia
OVCAR-8 ovarian = tested on: OVCAR-8 ovarian
MDA-MB-231 breast = tested on: MDA-MB-231 breast
ACHN renal = tested on: ACHN renal
SK-OV-3 ovarian = tested on: SK-OV-3 ovarian
NCI-H460 lung = tested on: NCI-H460 lung
K-562 leukemia = tested on: K-562 leukemia
MOLT-4 leukemia = tested on: MOLT-4 leukemia
HOP-92 NSCLC = tested on: HOP-92 NSCLC
LOX IMVI melanoma = tested on: LOX IMVI melanoma
IGROV1 ovarian = tested on: IGROV1 ovarian
UACC-62 melanoma = tested on: UACC-62 melanoma
OVCAR-4 ovarian = tested on: OVCAR-4 ovarian
HCC-2998 colon = tested on: HCC-2998 colon
HT29 colon = tested on: HT29 colon
SN12C renal = tested on: SN12C renal
BT-549 breast = tested on: BT-549 breast
HCT-15 colon = tested on: HCT-15 colon
NCI-H226 lung = tested on: NCI-H226 lung
TK-10 renal = tested on: TK-10 renal
KM12 colon = tested on: KM12 colon
SK-MEL-5 melanoma = tested on: SK-MEL-5 melanoma
SF-539 CNS = tested on: SF-539 CNS
NCI-H23 lung = tested on: NCI-H23 lung
HCT-116 colon = tested on: HCT-116 colon
PC-3 prostate = tested on: PC-3 prostate
SK-MEL-28 melanoma = tested on: SK-MEL-28 melanoma
OVCAR-3 ovarian = tested on: OVCAR-3 ovarian
HS 578T breast = tested on: HS 578T breast
SF-295 CNS = tested on: SF-295 CNS
UO-31 renal = tested on: UO-31 renal
CCRF-CEM leukemia = tested on: CCRF-CEM leukemia
786-0 renal = tested on: 786-0 renal
HOP-62 NSCLC = tested on: HOP-62 NSCLC
RXF 393 renal = tested on: RXF 393 renal
A498 renal = tested on: A498 renal

Measured: TGI

C=C(C)C1Cc2cc(C(C)=O)ccc2O1 (stereo not given)
not listed: HOP-62 NSCLC | RXF 393 renal | A498 renal
> 100 µM: all other assays above

COc1ccc(-c2n[nH]c3nc4ccccc4n3c2=O)cc1
not listed: RPMI-8226 leukemia | SK-OV-3 ovarian | K-562 leukemia | UACC-62 melanoma | OVCAR-3 ovarian | SF-295 CNS
> 100 µM: all other assays above

COc1cc(/C=C2\CC3C4CC[C@H]5C[C@@H](O)CC[C@]5(C)C4CC[C@]3(C)\C2=N\O)cc(OC)c1OC (stereo not given in full)
48.6 µM: NCI/ADR-RES ovarian
72.3 µM: SK-OV-3 ovarian
29.3 µM: CAKI-1 renal
45.1 µM: NCI-H226 lung
38.6 µM: HCC-2998 colon
36.9 µM: T-47D breast
55.1 µM: PC-3 prostate
34.1 µM: SF-539 CNS
66.9 µM: SK-MEL-28 melanoma
34.8 µM: MDA-MB-435 | 786-0 renal
82.9 µM: NCI-H460 lung
37.5 µM: MOLT-4 leukemia
21.4 µM: HCT-116 colon
30.9 µM: U251 CNS
39.8 µM: ACHN renal
35 µM: UACC-62 melanoma
75.7 µM: HS 578T breast
23.4 µM: RPMI-8226 leukemia
64.2 µM: LOX IMVI melanoma
94.8 µM: NCI-H522 lung
29.4 µM: COLO 205 colon
37.3 µM: M14 melanoma
59.7 µM: MDA-MB-231 breast
41.9 µM: MDA-N | SN12C renal
11 µM: OVCAR-3 ovarian
36.8 µM: RXF 393 renal
17.4 µM: UO-31 renal
38.9 µM: HOP-62 NSCLC
42.1 µM: BT-549 breast
56.7 µM: UACC-257 melanoma | KM12 colon
55.8 µM: HL-60(TB) leukemia
15.4 µM: SF-295 CNS
31.7 µM: SK-MEL-2 melanoma
30.7 µM: SK-MEL-5 melanoma
26.8 µM: MCF7 breast
37.9 µM: OVCAR-4 ovarian
42.8 µM: MALME-3M melanoma
31.1 µM: A498 renal
> 100 µM: all other assays above

Reference: PubChem BioAssay (NCI)
